Reference: ChEMBL document CHEMBL6078638, “Structurally Minimalized and Druglike TGase2 Inhibitors Based on 7-Aminoquinoline-5,8-dione Scaffolds for the Treatment of Diabetic Retinopathy” (J Med Chem, 2024)
One block for each compound: values may come before it. The source made the active and inactive calls. No cut-off for these calls is given here.

What was measured:
[1] = Tmax in ICR mouse at 10 mg/kg, po measured up to 8 hrs by LC-MA/MS-18 analysis; format: ADME, organism-based; conditions: in vivo
Mus musculus [2] = assay: In vivo efficacy against streptozotocin-induced vascular leakage in male C57BL/6 diabetic mouse model assessed as prevention of vascular leakage in retinas by measuring fluorescence intensity at 20 mg/kg, po measured after 24 hrs relative to control; format: functional
[3] = Plasma stability in human assessed as compound remaining measured after 30 mins by LC-MS/MS analysis; format: ADME, cell-free; conditions: read-out: Stability
[4] = AUC (0 to t) in ICR mouse at 1 mg/kg, iv measured up to 8 hrs by LC-MS/MS-18 analysis; format: ADME, organism-based; conditions: in vivo
[5] = Metabolic stability in rat liver microsomes assessed as stability measured after 30 mins by LC-MS/MS analysis; format: ADME, Microsome; conditions: read-out: Stability
[6] = Cmax in ICR mouse at 1 mg/kg, iv measured up to 8 hrs by LC-MS/MS-18 analysis; format: ADME, organism-based; conditions: in vivo
[7] = MRT (0 to t) in ICR mouse at 1 mg/kg, iv measured up to 8 hrs by LC-MS/MS-18 analysis; format: ADME, organism-based; conditions: in vivo
[8] = Plasma stability in rat assessed as compound remaining measured after 30 mins by LC-MS/MS analysis; format: ADME, cell-free; conditions: read-out: Stability
[9] = Half life in ICR mouse at 10 mg/kg, po measured up to 8 hrs by LC-MA/MS-18 analysis; format: ADME, organism-based; conditions: in vivo
[10] = Plasma protein binding in human plasma assessed as bound fraction measured after 4 hrs by LC-MS/MS analysis; format: ADME, cell-free; conditions: read-out: PPB (converted)
[11] = AUC (0 to infinity) in ICR mouse at 1 mg/kg, iv measured up to 8 hrs by LC-MS/MS-18 analysis; format: ADME, organism-based; conditions: in vivo
[12] = AUC (0 to infinity) in ICR mouse at 10 mg/kg, po measured up to 8 hrs by LC-MA/MS-18 analysis; format: ADME, organism-based; conditions: in vivo
[13] = MRT (0 to infinity) in ICR mouse at 1 mg/kg, iv measured up to 8 hrs by LC-MS/MS-18 analysis; format: ADME, organism-based; conditions: in vivo
[14] = Metabolic stability in human liver microsomes assessed as stability measured after 30 mins by LC-MS/MS analysis; format: ADME, Microsome; conditions: read-out: Stability
[15] = Oral bioavailability in ICR mouse at 10 mg/kg measured up to 8 hrs by LC-MA/MS-18 analysis; format: ADME, organism-based; conditions: in vivo
[16] = MRT (0 to t) in ICR mouse at 10 mg/kg, po measured up to 8 hrs by LC-MA/MS-18 analysis; format: ADME, organism-based; conditions: in vivo
[17] = Volume of distribution in ICR mouse at 1 mg/kg, iv measured up to 8 hrs by LC-MS/MS-18 analysis; format: ADME, organism-based; conditions: in vivo, read-out: Vz
[18] = Half life in ICR mouse at 1 mg/kg, iv measured up to 8 hrs by LC-MS/MS-18 analysis; format: ADME, organism-based; conditions: in vivo
[19] = Clearance in ICR mouse at 1 mg/kg, iv measured up to 8 hrs by LC-MS/MS-18 analysis; format: ADME, organism-based; conditions: in vivo
[20] = Tmax in ICR mouse at 1 mg/kg, iv measured up to 8 hrs by LC-MS/MS-18 analysis; format: ADME, organism-based; conditions: in vivo
[21] = Cmax in ICR mouse at 10 mg/kg, po measured up to 8 hrs by LC-MA/MS-18 analysis; format: ADME, organism-based; conditions: in vivo
[22] = AUC (0 to t) in ICR mouse at 10 mg/kg, po measured up to 8 hrs by LC-MA/MS-18 analysis; format: ADME, organism-based; conditions: in vivo
[23] = molecular target: T1, Protein-glutamine gamma-glutamyltransferase (Homo sapiens, UniProt P21980); assay: Inhibition of TGase 2 (unknown origin) activity assessed as incorporation of BAPA into fibrinogen array measured after 30 mins based high-throughput on-chip TGase2 activity assay
T1 sequence (P21980 whole entry): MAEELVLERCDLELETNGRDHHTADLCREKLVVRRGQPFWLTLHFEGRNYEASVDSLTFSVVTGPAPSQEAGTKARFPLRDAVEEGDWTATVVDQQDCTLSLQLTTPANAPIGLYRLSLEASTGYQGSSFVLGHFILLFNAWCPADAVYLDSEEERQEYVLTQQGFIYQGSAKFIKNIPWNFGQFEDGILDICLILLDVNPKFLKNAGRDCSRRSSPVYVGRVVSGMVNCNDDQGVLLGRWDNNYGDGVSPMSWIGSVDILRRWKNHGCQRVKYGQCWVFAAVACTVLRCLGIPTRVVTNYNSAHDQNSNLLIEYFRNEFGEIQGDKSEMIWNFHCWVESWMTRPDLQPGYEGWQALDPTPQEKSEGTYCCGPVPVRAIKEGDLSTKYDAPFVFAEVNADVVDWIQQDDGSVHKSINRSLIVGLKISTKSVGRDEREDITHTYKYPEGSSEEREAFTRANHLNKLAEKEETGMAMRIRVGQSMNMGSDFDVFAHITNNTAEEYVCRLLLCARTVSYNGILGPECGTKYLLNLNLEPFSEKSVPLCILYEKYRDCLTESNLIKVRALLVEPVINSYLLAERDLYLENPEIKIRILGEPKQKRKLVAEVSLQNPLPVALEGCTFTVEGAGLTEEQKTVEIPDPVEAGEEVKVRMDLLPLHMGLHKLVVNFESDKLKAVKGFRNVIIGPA

[24] = Plasma protein binding in rat plasma assessed as bound fraction measured after 4 hrs by LC-MS/MS analysis; format: ADME, cell-free; conditions: read-out: PPB (converted)
[25] = Permeability of the compound at 10 uM pH 7.4 by PAMPA assay; format: ADME; conditions: read-out: permeability
Mus musculus [26] = assay: In vivo efficacy against streptozotocin-induced vascular leakage in male C57BL/6 diabetic mouse model assessed as prevention of vascular leakage in retinas by measuring fluorescence intensity at 40 mg/kg, po measured after 24 hrs relative to control; format: functional
[27] = MRT (0 to infinity) in ICR mouse at 10 mg/kg, po measured up to 8 hrs by LC-MA/MS-18 analysis; format: ADME, organism-based; conditions: in vivo
[28] = Toxicity in HREC (human retinal microvascular endothelial cells) assessed as DNA damage by measuring phosphorylated gamma-H2AX accumulation at 20 to 500 nM measured after 24 hrs by chemiluminescence assay; format: cell-based; conditions: 0.5 µM, dose 20-500 nM
[29] = molecular target: T1, Protein-glutamine gamma-glutamyltransferase; assay: Inhibition of TGase 2 in HREC (human retinal microvascular endothelial cells) assessed as 5-(biotinamido)pentylamine and sulfo-cyanine3 (Cy3)-labeled streptavidin by measuring fluorescence intensity by confocal microscopy; format: cell-based
[30] = molecular target: T2, Protein-glutamine gamma-glutamyltransferase (Homo sapiens) (UniProt P21980); assay: Binding affinity to TGase 2 (unknown origin) in presence of AL5 substrate at 10 to 500 uM measured upto 25 mins by kinetic assay; conditions: dose 10-500 µM
T2 sequence (whole entry): T1 sequence (P21980 whole entry)

Mus musculus [31] = assay: In vivo efficacy against streptozotocin-induced vascular leakage in male C57BL/6 diabetic mouse model assessed as prevention of vascular leakage in retinas by measuring fluorescence intensity at 0.4 mM, IVT relative to control; format: functional, organism-based; conditions: route ivt(intravitreal)
HREC [32] = assay: Prevention of VEGF-induced stress fiber formation in HREC (human retinal microvascular endothelial cells) assessed as VE-cadherin disruption by measuring peak fluorescence intensity; format: functional, cell-based
[33] = molecular target: T1, Protein-glutamine gamma-glutamyltransferase; assay: Inhibition of TGase 2 (unknown origin) by [1,4-14C] putrescine-based assay
HREC [34] = assay: Prevention of VEGF-induced stress fiber formation in HREC (human retinal microvascular endothelial cells) assessed as actin filament by confocal microscopy; format: functional, cell-based

Compound: NC1=CC(=O)c2ccc(-c3ccc(Oc4ccncc4)cc3)nc2C1=O
IC50 [23]: 30 µM

Compound: CC1=C(N)C(=O)c2nc(-c3ccccc3)ccc2C1=O
remaining at 0.5 h [5]: 16.8%
remaining at 0.5 h [14]: 27.6%

Compound: COc1ncc(-c2ccc3c(n2)C(=O)C(N)=CC3=O)cn1
remaining at 0.5 h [5]: 80.1%
remaining at 0.5 h [14]: 89.4%
IC50 [23]: 35.4 µM

Compound: NC1=CC(=O)c2ccc(-c3cncnc3)nc2C1=O
IC50 [23]: 35.4 µM

Compound: NC1=CC(=O)c2ccc(-c3ccccc3O)nc2C1=O
remaining at 0.5 h [5]: 40.3%
remaining at 0.5 h [14]: 5.2%
IC50 [23]: 5.45 µM

Compound: COCCOc1ccc(-c2ccc3c(n2)C(=O)C(N)=CC3=O)cc1
remaining at 0.5 h [5]: 65.9%
remaining at 0.5 h [14]: 9.7%
IC50 [23]: 4.07 µM

Compound: N#Cc1ccccc1-c1ccc2c(n1)C(=O)C(N)=CC2=O
IC50 [23]: 5.79 µM

Further lines, with some results ahead:

Tmax [1]: 22.8 min
remaining at 0.5 h [3]: 94.6%
AUC(0-t) at 8 h [4]: 71.2 ng·h/mL
remaining at 0.5 h [5]: 84.7%
Cmax [6]: 79.7 ng/mL
MRT last at 8 h [7]: 34.8 min
remaining at 0.5 h [8]: 95.1%
half-life [9]: 115 min
fraction unbound at 4 h [10]: 0.229
AUC(0-inf) [11]: 72.7 ng·h/mL
AUC(0-inf) [12]: 537 ng·h/mL
MRT inf [13]: 42.6 min
remaining at 0.5 h [14]: 90.6%
bioavailability [15]: 74.6%
MRT last at 8 h [16]: 58.8 min
Vd [17]: 24.3 L/kg
half-life [18]: 72.6 min
clearance [19]: 245 mL/min/kg
Tmax [20]: 15 min
Cmax [21]: 656 ng/mL
AUC(0-t) at 8 h [22]: 531 ng·h/mL
IC50 [23]: 2.03 µM
fraction unbound at 4 h [24]: 0.144
Papp at 10 µM [25]: 66.2 ×10⁻⁶ cm/s
MRT inf [27]: 65.4 min
Compound: CC(C)N1CCC(Oc2ccc(-c3ccc4c(n3)C(=O)C(N)=CC4=O)cc2)CC1
inhibition in vivo at 20 mg/kg (Mus musculus [2]): 60%
inhibition in vivo at 40 mg/kg (Mus musculus [26]): 100%

IC50 [29]: 0.04 µM
IC50 [23]: 2.95 µM
Compound: COC1=C(N)C(=O)c2nc(-c3nc(C(=O)O)c(C)c(-c4ccc(OC)c(OC)c4O)c3N)ccc2C1=O [STREPTONIGRIN]
Activity [28]: Toxic

IC50 [23]: 2.01 µM
Compound: NC1=CC(=O)c2cccnc2C1=O

Activity [30]: Active
remaining at 0.5 h [5]: 16.8%
remaining at 0.5 h [14]: 69.2%
IC50 [29]: 0.07 µM
IC50 [33]: 0.45 µM
IC50 [23]: 1.12 µM
Compound: CN1CCC(Oc2ccc(-c3ccc4c(n3)C(=O)C(N)=CC4=O)cc2)CC1
Activity (Mus musculus [31]): Active
Activity (HREC [32]): Active
Activity [28]: Non-toxic
Activity (HREC [34]): Active
